Experimental data published in patent publication US10583111B2, “Method for preventing or treating diseases associated with the inhibition of EGFR” (priority 2017, dated 2020).

Tests used:
[1] = test system: human umbilical vein endothelial cells (HUVEC); assay: Proliferative toxicity of EGFR inhibitor on HUVEC and ameliorating effect of nitric oxide releasing agent (CCK-8); type: cell-based; settings: 48 hrs
Method: The cultured human umbilical vein endothelial cells (HUVECs) were digested, counted, and seeded to a 96-well plate with 5000-10000 cells per well. After the cells were attached, the supernatant was discarded. The wells were divided to the blank control group, the EGFR inhibitor group, the EGFR inhibitor+nitric oxide releasing agent group and blank solvent control group.
EGFR inhibitor group: 100 μL of the EGFR inhibitor solution was added (the final concentration was listed in Table 5, the EGFR inhibitor solution are DMSO solution); the EGFR inhibitor+nitric oxide releasing agent group: the EGFR inhibitor solution and the nitric oxide releasing agent solution were added (the final concentrations of the EGFR inhibitor and the nitric oxide releasing agent were listed in Table 5, and depending on the solubility of the nitric oxide releasing agents, the nitric oxide releasing agent solution was ethanol solution or aqueous solution); the blank control group: except the normal replacement of medium, no additional solution was added; a plurality of blank solvent control group: an equal volume of the same type of solvent solution as the corresponding EGFR inhibitor group or the EGFR inhibitor+nitric oxide releasing agent group was added. The blank solvent control group was used for data correction to eliminate the effect of solvent to the result in the EGFR inhibitor group and the EGFR inhibitor+nitric oxide releasing agent group. After additional 48 hrs of culture, the survival rate of cells was determined by Cell Counting Kit-8 (CCK-8) assay kit (C0037, Shanghai Beyotime Biotechnology Inc., Beyotime Biotechnology), to calculate the proliferative toxicity of the EGFR inhibitor to cells and the ameliorating effect of the nitric oxide releasing agent to the proliferative toxicity. GraphPad Prism 6.0 Software and t-test were used to carry out a statistic analysis of the results and plot a graph. […]

[2] = test system: Human Oral Keratinocytes (HOK); assay: Proliferative toxicity of EGFR inhibitor on Human Oral Keratinocytes (HOK) and ameliorating effect of nitric oxide releasing agent (CCK-8); type: cell-based; settings: one merged result for Erlotinib 10 μM, Afatinib 5 μM, Osimertinib 20 μM, agent 200 μM, 48 hrs
Method: The cultured Human Oral Keratinocytes (HOK) were digested, counted, and seeded to a 96-well plate with 5000-10000 cells per well. After the cells were attached, the supernatant was discarded. The wells were divided to the blank control group, the EGFR inhibitor group, the EGFR inhibitor+nitric oxide releasing agent group and blank solvent control group. EGFR inhibitor group: 100 μL of the EGFR inhibitor solution was added (the final concentration was listed in Table 4, all the EGFR inhibitor solution that are DMSO solution); the EGFR inhibitor+nitric oxide releasing agent group: the EGFR inhibitor solution and the nitric oxide releasing agent solution were added (the final concentrations of the EGFR inhibitor and the nitric oxide releasing agent were listed in Table 4, and depending on the solubility of the nitric oxide releasing agents, the nitric oxide releasing agent solution was ethanol solution or aqueous solution); the blank control group: except the normal replacement of medium, no additional solution was added; a plurality of blank solvent control group: an equal volume of the same type of solvent as the corresponding EGFR inhibitor group or the EGFR inhibitor+nitric oxide releasing agent group was added. […] After additional 48 hrs of culture, the survival rate of cells was determined by Cell Counting Kit-8 (CCK-8) assay kit (C0037, Shanghai Beyotime Biotechnology Inc., Beyotime Biotechnology), to calculate the proliferative toxicity of the EGFR inhibitor to cells and the ameliorating effect of the nitric oxide releasing agent to the proliferative toxicity. GraphPad Prism 6.0 Software and t-test were used to carry out a statistic analysis of the results and plot a graph.

[3] = test system: skin cells HaCaT; assay: Proliferative toxicity of EGFR inhibitor on skin cells HaCaT and ameliorating effect of nitric oxide releasing agents (CCK-8); type: cell-based; settings: 48 hrs
Method: The cultured skin cell HaCaT were digested, counted, and seeded in a 96-well plate with 5000-10000 cells per well. After the cells were attached, the supernatant was discarded. The wells were divided to the blank control group, the EGFR inhibitor group, the EGFR inhibitor+nitric oxide releasing agent group and the blank solvent control group. The EGFR inhibitor group: 100 μL of the EGFR inhibitor solution was added (the final concentration was shown in Table 2; Cetuximab was in an aqueous solution, besides which each of other EGFR inhibitors were in a solution containing DMSO); the EGFR inhibitor+nitric oxide releasing agent group: the EGFR inhibitor solution and the nitric oxide releasing agent solution were added (the final concentration of the EGFR inhibitor and nitric oxide releasing agent were shown in Table 2, and depending on the solubility of the nitric oxide releasing agent, the nitric oxide releasing agent solution was an ethanol solution or an aqueous solution); the blank control group: except the normal replacement of the medium, no additional solution was added; a plurality of blank solvent control groups: an equal volume of the same type of solvent as the corresponding EGFR inhibitor group or the EGFR inhibitor+nitric oxide releasing agent was added. […] After additional culture for 48 hrs, the survival rate of cells was measured by Cell Counting Kit-8 (CCK-8) assay kit (C0037, purchased from Shanghai Beyotime Biotechnology Inc.) to calculate the proliferative toxicity of the EGFR inhibitor to cells and the ameliorating effect of the nitric oxide releasing agent to the proliferative toxicity.

[4] = test system: human foreskin fibroblasts (HFF); assay: Proliferative toxicity of EGFR inhibitor on HFF and ameliorating effect of nitric oxide releasing agent (CCK-8); type: cell-based; settings: one merged result for Erlotinib 10 μM, Afatinib 5 μM, Osimertinib 20 μM, agent 200 μM, 48 hrs
Method: The cultured human foreskin fibroblasts (HFF) were digested, counted, and seeded to a 96-well plate with 5000-10000 cells per well. After the cells were attached, the supernatant was discarded. The wells were divided to the blank control group, the EGFR inhibitor group, the EGFR inhibitor+nitric oxide releasing agent group and blank solvent control group. EGFR inhibitor group: 100 μL of the EGFR inhibitor solution was added (the final concentration was listed in Table 6, the EGFR inhibitor solutionare DMSO solution); the EGFR inhibitor+nitric oxide releasing agent group: the EGFR inhibitor solution and the nitric oxide releasing agent solution were added (the final concentrations of the EGFR inhibitor and the nitric oxide releasing agent were listed in Table 6, and depending on the solubility of the nitric oxide releasing agents, the nitric oxide releasing agent solution was ethanol solution or aqueous solution); the blank control group: except the normal replacement of medium, no additional solution was added; a plurality of blank solvent control group: an equal volume of the same type of solvent as the corresponding EGFR inhibitor group or the EGFR inhibitor+nitric oxide releasing agent group was added. […] After additional 48 hrs of culture, the survival rate of cells was determined by Cell Counting Kit-8 (CCK-8) assay kit (C0037, Shanghai Beyotime Biotechnology Inc., Beyotime Biotechnology), to calculate the proliferative toxicity of the EGFR inhibitor to cells and the ameliorating effect of the nitric oxide releasing agent to the proliferative toxicity. GraphPad Prism 6.0 Software and t-test were used to carry out a statistic analysis of the results and plot a graph.

[5] = test system: small intestine epithelial cells FHs 74 Int; assay: Proliferative toxicity of EGFR inhibitor to small intestine epithelial cell FHs 74 Int and ameliorating effect of nitric oxide releasing agent (CCK-8); type: cell-based; settings: one merged result for Erlotinib 10 μM, Afatinib 5 μM, Osimertinib 20 μM, agent 200 μM, 48 hrs
Method: The cultured small intestine epithelial cells FHs 74 Int were digested, counted, and seeded to a 96-well plate with 5000-10000 cells per well. After the cells were attached, the supernatant was discarded. The wells were divided to the blank control group, the EGFR inhibitor group, the EGFR inhibitor+nitric oxide releasing agent group and blank solvent control group.
EGFR inhibitor group: 100 μL of the EGFR inhibitor solution was added (the final concentration was listed in Table 3, all the EGFR inhibitor solution are DMSO solution); the EGFR inhibitor+nitric oxide releasing agent group: the EGFR inhibitor solution and the nitric oxide releasing agent solution were added (the final concentrations of the EGFR inhibitor and the nitric oxide releasing agent were listed in Table 3, and depending on the solubility of the nitric oxide releasing agents, the nitric oxide releasing agent solution was ethanol solution or aqueous solution); the blank control group: except the normal replacement of medium, no additional solution was added; a plurality of blank solvent control group: an equal volume of the same type of solvent as the corresponding EGFR inhibitor group or the EGFR inhibitor+nitric oxide releasing agent group was added. […] After additional 48 hrs of culture, the survival rate of cells was determined by Cell Counting Kit-8 (CCK-8) assay kit (C0037, Shanghai Beyotime Biotechnology Inc., Beyotime Biotechnology), to calculate the proliferative toxicity of the EGFR inhibitor to cells and the ameliorating effect of the nitric oxide releasing agent to the proliferative toxicity. GraphPad Prism 6.0 Software and t-test were used to carry out a statistic analysis of the results and plot a graph.

[6] = test system: intracellular NO level in HaCaT; assay: Effect of the EGFR inhibitor on the intracellular NO levels, HaCaT; type: cell-based; settings: 20 μM, 12-24 hrs, cell lysate
Method: (§1) The cultured HaCaT, HUVEC and hMSC were respectively digested, counted, and seeded into 6-well plates with 100,000-600,000 cells per well. After the cells were attached, the supernatant was discarded, and 1.5 mL of the EGFR inhibitor solution diluted to the final concentration as shown in Table 7 was added into the wells of the 6-well plates, wherein no additional solution was added to the blank control group, except the normal replacement of basic medium. After 12-24 hrs of addition of the EGFR inhibitor, the supernatant was discarded, while 100 μL of a cell lysis solution was added to the cells in the 6-well plates (specifically for the detection of nitric oxide, 53090, Beyotime Inc.). After 30 s of lysis, 50 μL cell lysis solution was taken. The NO level in the cell lysis solution was detected by using NO assay kit (S0021, Beyotime Inc.). GraphPad Prism 6.0 Software and t-test were used to carry out a statistic analysis of the results and plot a graph.

[7] = test system: intracellular NO level in HUVEC; assay: Effect of the EGFR inhibitor on the intracellular NO levels, HUVEC; type: cell-based, human; settings: 20 μM, 12-24 hrs, cell lysate
Method: as §1

[8] = test system: intracellular NO level in hMSC; assay: Effect of the EGFR inhibitor on the intracellular NO levels, hMSC; type: cell-based; settings: hMSCs; 20 μM; 12-24 hrs; cell lysate
Method: as §1

[9] = Afatinib 5 μM + nitric oxide releasing agent 200 μM
[10] = Cetuximab 100-200 μg/mL + nitric oxide releasing agent 200 μM
[11] = Erlotinib 10 μM + nitric oxide releasing agent 200 μM
[12] = Osimertinib 20 μM + nitric oxide releasing agent 200 μM

Structure (SMILES)	Cell Survival Rate: percentage of viable cells increased vs EGFR inhibitor group [2]	Cell Survival Rate: percentage of viable cells increased vs EGFR inhibitor group [3, 9]	Cell Survival Rate: percentage of viable cells increased vs EGFR inhibitor group [3, 10]	Cell Survival Rate: percentage of viable cells increased vs EGFR inhibitor group [3, 11]	Cell Survival Rate: percentage of viable cells increased vs EGFR inhibitor group [3, 12]	Cell Survival Rate: percentage of viable cells increased vs EGFR inhibitor group [4]	Cell Survival Rate: percentage of viable cells increased vs EGFR inhibitor group [5]	also measured
O=[N+]([O-])OCC(CO[N+](=O)[O-])O[N+](=O)[O-] [Nitroglycerin, nitroglycerin]	20-30%	by 85-95%	by 35-45%	by 65-75%	by 35-45%	30-90%	15%-35%	Cell Survival Rate: percentage of viable cells increased vs EGFR inhibitor group ([1]; Afatinib 5 μM + agent 200 μM): 15-20%; Cell Survival Rate: percentage of viable cells increased vs EGFR inhibitor group ([1]; Erlotinib 10 μM + agent 200 μM): 20-30%; Cell Survival Rate: percentage of viable cells increased vs EGFR inhibitor group ([1]; Osimertinib 20 μM + agent 200 μM): 90-100%; Cell Survival Rate: percentage of viable cells increased vs EGFR inhibitor group ([3]; Canertinib 10 μM + nitric oxide releasing agent 200 μM): by 55-65%; Cell Survival Rate: percentage of viable cells increased vs EGFR inhibitor group ([3]; EAI045 20 μM + nitric oxide releasing agent 200 μM): by 65-75%; Cell Survival Rate: percentage of viable cells increased vs EGFR inhibitor group ([3]; Gefitinib 10 μM + nitric oxide releasing agent 200 μM): by 65-75%; Cell Survival Rate: percentage of viable cells increased vs EGFR inhibitor group ([3]; Icotinib 10 μM + nitric oxide releasing agent 200 μM): by 65-75%; Cell Survival Rate: percentage of viable cells increased vs EGFR inhibitor group ([3]; Lapatinib 10 μM + nitric oxide releasing agent 200 μM): by 55-65%; Cell Survival Rate: percentage of viable cells increased vs EGFR inhibitor group ([3]; Nazartinib 10 μM + nitric oxide releasing agent 200 μM): by 55-65%; Cell Survival Rate: percentage of viable cells increased vs EGFR inhibitor group ([3]; Neratinib 10 μM + nitric oxide releasing agent 200 μM): by 65-75%; Cell Survival Rate: percentage of viable cells increased vs EGFR inhibitor group ([3]; Olmutinib 10 μM + nitric oxide releasing agent 200 μM): by 35-45%; Cell Survival Rate: percentage of viable cells increased vs EGFR inhibitor group ([3]; Poziotinib 10 μM + nitric oxide releasing agent 200 μM): by 55-65%; Cell Survival Rate: percentage of viable cells increased vs EGFR inhibitor group ([3]; Rociletinib 10 μM + nitric oxide releasing agent 200 μM): by 65-75%; Cell Survival Rate: percentage of viable cells increased vs EGFR inhibitor group ([3]; Sapitinib 10 μM + nitric oxide releasing agent 200 μM): by 55-65%; Cell Survival Rate: percentage of viable cells increased vs EGFR inhibitor group ([3]; Vandetanib 10 μM + nitric oxide releasing agent 200 μM): by 55-65%; Cell Survival Rate: percentage of viable cells increased vs EGFR inhibitor group ([3]; Varlitinib 10 μM + nitric oxide releasing agent 200 μM): by 35-45%
O=C(NCCO[N+](=O)[O-])c1cccnc1 [Nicorandil, nicorandil]	–	by 65-75%	–	by 85-95%	by 30-40%	–	–	–
C#Cc1cccc(Nc2ncnc3cc(OCCOC)c(OCCOC)cc23)c1 [Erlotinib]	–	–	–	–	–	–	–	NO Level: percentage of NO concentration decreased vs control group [6]: 28%; NO Level: percentage of NO concentration decreased vs control group [7]: 22%; NO Level: percentage of NO concentration decreased vs control group [8]: 30%
CC(C)CCON=O [Isoamyl nitrite, isoamyl nitrite]	25-35%	by 35-45%	by 35-45%	by 75-85%	by 35-45%	30-80%	25%-35%	–
NCCN(CCN)[N+]([O-])=NO [NOC-18, 3,3-di (aminoethyl)-1-hydroxyl-2-carbonyl-1-triazene]	–	by 35-45%	by 45-55%	by 75-85%	by 25-35%	–	–	–
CCOC(=O)[N-]c1cn(N2CCOCC2)n[o+]1 [Molsidomine]	20-30%	by 35-45%	–	by 75-85%	by 35-45%	20-70%	15%-35%	–
